We go through one molecule from article PMC8880313, “Discovery of Novel Andrographolide Derivatives as Antiviral Inhibitors against Human Enterovirus A71” (Pharmaceuticals, 2022).

What is called inhibition is how much of the control response was suppressed. The term IC50 denotes the concentration at which inhibition is half-maximal.

The subject of one data set is EV-A71. Description: Immunofluorescence-based preliminary screen of EV-A71-infected RD cells. Type of data set: cell-based, human enterovirus A71 (EV-A71) strain 41. The conditions noted are these: EV-A71-infected RD cells (MOI = 1). The source says: The screening assay was built using an immunofluorescence approach that was previously established and validated, with DAPI-stained nuclei accounting for total cell count and FITC-stained EV-A71 accounting for infected cell count upon EV-A71 infection and compound treatment. Both cell counts would then be used to calculate percentage infection and percentage inhibition to identify for hits. Before the screening platform can be employed to screen for potential antivirals, its robustness has to be appraised. In this study, Z-factor was calculated to assess the robustness of the screening platform. Firstly, seeded RD cells were either infected with EV-A71 (Multiplicity of Infection of 1) or mock-infected with media. The cells were then fixed, stained and imaged 12 h post-infection (hpi). The IFA images were analyzed with the Cell Profiler software to determine the infection rate of each well. Between the virus-infected and mock-infected wells, a clear distinction in infection rates could be observed (Figure 1a). […] In this case, the Z-factor, measured at 0.818, was indicative of a highly robust screening platform for high-throughput screening. The constructed screening platform was then employed to screen the compound library made up of 344 chemically synthesized novel compounds analogous to andrographolide. The compounds were screened at 10 µM with IFA images taken and analyzed to identify for hits. Treatment with 0.1% DMSO was used as vehicle control.
Seeded 96-well plates (Corning Inc., Corning, NY, USA), with 2 × 10^4 RD cells per well, were incubated overnight at 37 °C with 5% CO2. The seeded cells were then infected with EV-A71 (50 µL per well, MOI = 1) for 1 h at 37 °C with 5% CO2. The EV-A71-infected cells were then treated with the compound library at a final concentration of 10 µM for 12 h at 37 °C with 5% CO2. Treatment with 0.1% DMSO was used as vehicle control. Following treatment, cells were fixed with 100 µL of methanol (Sinopharm Chemical, Shanghai, China) for 15 min at −20°C and rinsed with 100 µL of 1x PBS for three times before performing indirect immunofluorescence assay (IFA). Anti-EV-A71 VP2 1° antibodies, MAB979 (Merck Millipore, Burlington, VT, USA), diluted 500-fold in PBS, was incubated with the fixed cells for 1 h at 37 °C. Cells were then rinsed thrice with PBS and incubated with anti-mouse FITC 2° antibodies (Merck Millipore), diluted 200-fold in PBS, for 1 h at 37 °C. After which, the cells were rinsed thrice with PBS before staining with DAPI (Sigma-Aldrich) at room temperature for 15 min. Cells were then rinsed thrice and preserved in 100 µL of PBS before imaging with the Operetta High-Content Imaging System and the Harmony High-Content Imaging and Analysis Software (Perkin Elmer, Waltham, MA, USA). Images of stained cells were captured with the DAPI and FITC fluorescence filters, from a pre-determined central position of each well and processed with the Cell Profiler software. […] The percentage infection (PI) for each well was calculated using the formula: Infected cell count/Total cell count × 100%. The percentage inhibition for each well was calculated using the formula PI0− PI/PI0 × 100% where PI0 refers to the percentage infection of wells treated with the vehicle control while PI refers to the percentage infection of wells treated with the compounds.

A further data set deals with CV-B5. Put plainly: Post-treatment assay, antiviral spectrum. The data set is classed as cell-based, Coxsackievirus B5. As to the method:
(§1) We were also interested in the antiviral potential of ZAF-47 against other Enteroviruses. As such, we performed post-treatment assay on RD cells infected with other Enteroviruses such as CV-A16, CV-A6, Echo7, CV-B5, CV-A24 and EV-D68.
(§2) To determine the inhibitory profiles of the hits, post treatment assay was performed. Seeded 24-well plates, with 1.5 × 10^5 RD cells per well, were incubated overnight at 37 °C with 5% CO2. The seeded cells were infected with EV-A71 (100 µL per well, MOI = 1) for 1 h at 37 °C with 5% CO2 and then rinsed with 1 mL of PBS twice. Different concentrations of the hits were used to treat the infected cells for 12 h at 37 °C with 5% CO2. At 12 hpi, the plates were frozen and thawed for 2 cycles (−80°C; 37 °C) before collection of supernatants to measure the viral titres via viral plaque assay.
(§3) Measurement of the viral titres from collected supernatants was derived from viral plaque assays. To do this, 24-well plates, seeded with 2.4 × 10^5 RD cells per well, were used in plaque assays for EV-A71, EV-D68, Echo7, CV-A6, CV-A16 and CV-A24 while 24-well plates, seeded with 1.2 × 10^5 Vero cells per well, were used in plaque assays for CV-B5. Seeded cells were incubated overnight at 37 °C with 5% CO2. […] Subsequent formation of viral plaques was counted manually to quantify the viral titre in PFU/mL […]

For the next data set, the system named is CV-A24. Put plainly: Post-treatment assay, antiviral spectrum. Type of data set: cell-based, Coxsackievirus A24. The procedure: as §1, §2, §3

As for `CC(=O)OC[C@]1(C)C(=O)CC[C@@]2(C)C(C/C=C3/C(=O)OC[C@@H]3Oc3cccc4cccnc34)=C(C)CC[C@@H]21` [ZAF-47, (14β)-(8′-Quinolinoxy)-3-ketone-9-dehydro-17-hydro-19-acetoxy–andrographolide], the “Nuclei Count” value with EV-A71 (10 µM, 12 h, 0.1% DMSO wells 998) worked out at 955. The inhibition at 10 µM in the data set on EV-A71 (Enterovirus A, EVA71, 12 h, read-out: Inhibition Rate (%)) worked out at 77.1%. Moreover, the viral titre entry with CV-B5 (10 µM, CV-B5-infected RD cells) is on record as “reducing the viral titres of the above-listed enteroviruses significantly”; in the data set on CV-A24 (10 µM, CV-A24-infected RD cells), “reducing the viral titres of the above-listed enteroviruses significantly”. Also, the IC50 in the data set on CV-B5 (CVB5, CV-B5, Enterovirus B, drug treatment duration 12 h, RD cells) stood at 2460 nM; in the data set on CV-A24 (CVA24, CV-A24, Enterovirus C, drug treatment duration 12 h, RD cells), 1090 nM.
